Results from patent US20220402882A1, “HERBICIDAL COMPOUNDS” (SYNGENTA CROP PROTECTION AG, priority 2019, published 2022).

Columns and labels:
Assay type in all cases: in vivo
Settings in all cases: evaluated after 13 days
[1] = test system: Ipomoea hederacea (IPOHE); experiment: Post-emergence glasshouse herbicide test
Experimental: (§1) Seeds of a variety of test species are sown in standard soil in pots (Lolium perenne (LOLPE), Amaranthus retoflexus (AMARE), Abutilon theophrasti (ABUTH), Setaria faberi (SETFA), Echinochloa crus-galli (ECHCG), Ipomoea hederacea (IPOHE)). After cultivation for one day (pre-emergence) or after 8 days cultivation (post-emergence) under controlled conditions in a glasshouse (at 24/16° C., day/night; 14 hours light; 65% humidity), the plants are sprayed with an aqueous spray solution derived from the formulation of the technical active ingredient in acetone/water (50:50) solution containing 0.5% Tween™ 20 (polyoxyethelyene sorbitan monolaurate, CAS RN 9005-64-5). Compounds are applied at 125 g/h unless otherwise indicated. The test plants are then grown in a glasshouse under controlled conditions in a glasshouse (at 24/16° C., day/night; 14 hours light; 65% humidity) and watered twice daily. After 13 days for pre- and post-emergence, the test is evaluated for the percentage damage caused to the plant. The biological activities are shown in the following table on a five-point scale (5=80-100%; 4=60-79%; 3=40-59%; 2=20-39%; 1=0-19%).

Setaria faberi (SETFA) [2] = experiment: Post-emergence glasshouse herbicide test
Experimental: as §1

[3] = test system: Amaranthus retoflexus (AMARE); experiment: Post-emergence glasshouse herbicide test
Experimental: as §1

[4] = test system: Abutilon theophrasti (ABUTH); experiment: Post-emergence glasshouse herbicide test
Experimental: as §1

[5] = test system: Echinochloa crus-galli (ECHCG); experiment: Post-emergence glasshouse herbicide test
Experimental: as §1

[6] = test system: Ipomoea hederacea (IPOHE); experiment: Pre-emergence glasshouse herbicide test
Experimental: as §1

Setaria faberi (SETFA) [7] = experiment: Pre-emergence glasshouse herbicide test
Experimental: as §1

[8] = test system: Amaranthus retoflexus (AMARE); experiment: Pre-emergence glasshouse herbicide test
Experimental: as §1

[9] = test system: Abutilon theophrasti (ABUTH); experiment: Pre-emergence glasshouse herbicide test
Experimental: as §1

[10] = test system: Echinochloa crus-galli (ECHCG); experiment: Pre-emergence glasshouse herbicide test
Experimental: as §1

Compound	percentage damage caused to the plant, IPOHE ([1]; 125 g/h)	percentage damage caused to the plant, SETFA (Setaria faberi (SETFA) [2]; 125 g/h)	percentage damage caused to the plant, AMARE ([3]; 125 g/h)	percentage damage caused to the plant, ABUTH ([4]; 125 g/h)	percentage damage caused to the plant, ECHCG ([5]; 125 g/h)	percentage damage caused to the plant, IPOHE ([6]; 125 g/h)	percentage damage caused to the plant, SETFA (Setaria faberi (SETFA) [7]; 125 g/h)	percentage damage caused to the plant, AMARE ([8]; 125 g/h)	percentage damage caused to the plant, ABUTH ([9]; 125 g/h)	percentage damage caused to the plant, ECHCG ([10]; 125 g/h)	percentage damage caused to the plant, IPOHE ([1]; *Applied at 250 g/ha)	percentage damage caused to the plant, SETFA (Setaria faberi (SETFA) [2]; *Applied at 250 g/ha)	percentage damage caused to the plant, AMARE ([3]; *Applied at 250 g/ha)	percentage damage caused to the plant, ABUTH ([4]; *Applied at 250 g/ha)	percentage damage caused to the plant, ECHCG ([5]; *Applied at 250 g/ha)	percentage damage caused to the plant, IPOHE ([6]; *Applied at 250 g/ha)	percentage damage caused to the plant, SETFA (Setaria faberi (SETFA) [7]; *Applied at 250 g/ha)	percentage damage caused to the plant, AMARE ([8]; *Applied at 250 g/ha)	percentage damage caused to the plant, ABUTH ([9]; *Applied at 250 g/ha)	percentage damage caused to the plant, ECHCG ([10]; *Applied at 250 g/ha)
Cc1c(C(=O)Nc2nnnn2C)ccc(OC(F)(F)F)c1S(C)(=O)=O [Compound 1.013]	5 (5=80-100%)	5 (5=80-100%)	5 (5=80-100%)	5 (5=80-100%)	5 (5=80-100%)	5 (5=80-100%)	5 (5=80-100%)	5 (5=80-100%)	5 (5=80-100%)	5 (5=80-100%)	–	–	–	–	–	–	–	–	–	–
CCSc1c(OC(F)F)ccc(C(=O)Nc2nnc(C)o2)c1Cl [Compound 2.012]	4 (4=60-79%)	5 (5=80-100%)	5 (5=80-100%)	5 (5=80-100%)	5 (5=80-100%)	3 (3=40-59%)	5 (5=80-100%)	5 (5=80-100%)	4 (4=60-79%)	5 (5=80-100%)	–	–	–	–	–	–	–	–	–	–
CSc1c(OC(F)(F)F)ccc(C(=O)Nc2nnc(C)o2)c1Cl [Compound 2.006]	–	–	–	–	–	–	–	–	–	–	5 (5=80-100%)	5 (5=80-100%)	5 (5=80-100%)	5 (5=80-100%)	5 (5=80-100%)	1 (1=0-19%)	1 (1=0-19%)	5 (5=80-100%)	2 (2=20-39%)	1 (1=0-19%)
CCCSc1c(OC(F)F)ccc(C(=O)Nc2nnnn2CC)c1Cl [Compound 1.067]	4 (4=60-79%)	4 (4=60-79%)	5 (5=80-100%)	5 (5=80-100%)	4 (4=60-79%)	2 (2=20-39%)	4 (4=60-79%)	5 (5=80-100%)	4 (4=60-79%)	5 (5=80-100%)	–	–	–	–	–	–	–	–	–	–
CC[S+]([O-])c1c(OCC(F)(F)F)ccc(C(=O)Nc2nnnn2C)c1C (centres unmarked) [Compound 1.039]	4 (4=60-79%)	5 (5=80-100%)	5 (5=80-100%)	5 (5=80-100%)	5 (5=80-100%)	4 (4=60-79%)	4 (4=60-79%)	5 (5=80-100%)	5 (5=80-100%)	4 (4=60-79%)	–	–	–	–	–	–	–	–	–	–
CC[S+]([O-])c1c(OCC(F)(F)F)ccc(C(=O)Nc2nnnn2C)c1Cl (centres unmarked) [Compound 1.036]	5 (5=80-100%)	5 (5=80-100%)	5 (5=80-100%)	5 (5=80-100%)	5 (5=80-100%)	4 (4=60-79%)	5 (5=80-100%)	5 (5=80-100%)	5 (5=80-100%)	5 (5=80-100%)	–	–	–	–	–	–	–	–	–	–
CCS(=O)(=O)c1c(OC(F)F)ccc(C(=O)Nc2nnc(C)o2)c1C [Compound 2.014]	4 (4=60-79%)	5 (5=80-100%)	5 (5=80-100%)	5 (5=80-100%)	5 (5=80-100%)	5 (5=80-100%)	5 (5=80-100%)	5 (5=80-100%)	5 (5=80-100%)	5 (5=80-100%)	–	–	–	–	–	–	–	–	–	–
CCSc1c(OC(F)F)ccc(C(=O)Nc2nnnn2C)c1Cl [Compound 1.027]	4 (4=60-79%)	5 (5=80-100%)	5 (5=80-100%)	5 (5=80-100%)	5 (5=80-100%)	3 (3=40-59%)	5 (5=80-100%)	5 (5=80-100%)	5 (5=80-100%)	5 (5=80-100%)	–	–	–	–	–	–	–	–	–	–
CC[S+]([O-])c1c(OC(F)(F)F)ccc(C(=O)Nc2nnnn2C)c1C (centres unmarked) [Compound 1.023]	5 (5=80-100%)	5 (5=80-100%)	5 (5=80-100%)	5 (5=80-100%)	5 (5=80-100%)	5 (5=80-100%)	5 (5=80-100%)	5 (5=80-100%)	5 (5=80-100%)	5 (5=80-100%)	–	–	–	–	–	–	–	–	–	–
CSc1c(OC(F)(F)C(F)F)ccc(C(=O)Nc2nnnn2C)c1Cl [Compound 1.009, 2-chloro-3-methylsulfanyl-N-(1-methyltetrazol-5-yl)-4-(1,1,2,2-tetrafluoroethoxy)benzamide]	4 (4=60-79%)	4 (4=60-79%)	4 (4=60-79%)	4 (4=60-79%)	4 (4=60-79%)	3 (3=40-59%)	5 (5=80-100%)	5 (5=80-100%)	4 (4=60-79%)	5 (5=80-100%)	–	–	–	–	–	–	–	–	–	–
CCS(=O)(=O)c1c(OCC(F)(F)F)ccc(C(=O)Nc2nnnn2C)c1C [Compound 1.040]	5 (5=80-100%)	5 (5=80-100%)	5 (5=80-100%)	5 (5=80-100%)	5 (5=80-100%)	5 (5=80-100%)	5 (5=80-100%)	5 (5=80-100%)	5 (5=80-100%)	5 (5=80-100%)	–	–	–	–	–	–	–	–	–	–
